Experiment [1] deals with GDP-bound KRAS protein (aa 1-169), containing both G12C and C118A amino acid substitutions (Homo sapiens, UniProt P01116, C118A/G12C). As to the kind of experiment: Coupled nucleotide exchange assay (SOS-mediated, AlphaScreen). Format: biochemical. To be noted: 5 min compound pre-incubation; for IC50: read-out: Coupled exchange IC50 (5 min).
The subject of experiment [2] is Phosphorylation of ERK1/2 in MIA PaCa-2 cells. In words: Phospho-ERK1/2 MSD assay in MIA PaCa-2 cells. Format: cell-based. To be noted: read-out: p-ERK IC50 (2 h; MIA PaCa-2), 2 h compound treatment. A digest of the protocol:
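In the procedure, cells were plated a day ahead at 25,000 per well. Next, a dilution series of compound in growth medium was added for 2 or 4 h. EGF (10 ng/mL) stimulation for 10 min preceded washing and RIPA lysis. Lysate phospho-ERK1/2 was read by MSD, with IC50 derived by 4-parameter logistic analysis.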

Like-named read-outs stand apart in the source and are kept apart here.

GDP-bound KRAS protein (aa 1-169), containing both G12C and C118A amino acid substitutions, sequence (P01116 1-169 isoform P01116-2 G12C/C118A): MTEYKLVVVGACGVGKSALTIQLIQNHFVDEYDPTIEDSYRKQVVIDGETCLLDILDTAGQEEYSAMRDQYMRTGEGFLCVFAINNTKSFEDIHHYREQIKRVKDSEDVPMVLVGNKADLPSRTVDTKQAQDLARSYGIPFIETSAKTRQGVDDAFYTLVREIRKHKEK

What is called IC50 is the point on the concentration scale where inhibition reaches its midpoint. For the compound `C=CC(=O)N1CCN(c2nc(=O)n(-c3c(C)ccnc3C(C)C)c3nc(-c4ccccc4F)c(Cl)cc23)C[C@H]1C` (atropisomer, axis not shown; (M)) [Example 78-1, (M)-6-Chloro-7-(2-fluorophenyl)-1-(4-methyl-2-(2-propanyl)-3-pyridinyl)-4-((3R)-3-methyl-4-(2-propenoyl)-1-piperazinyl)pyrido[2,3-d]pyrimidin-2(1H)-one], the IC50 in experiment [1] was 213 nM; in experiment [2], 49 nM.
`C=CC(=O)N1CCN(c2nc(=O)n(-c3c(F)cccc3C(C)C)c3nc(-c4ccccc4F)c(F)cc23)[C@@H](C)C1` (single isomer, unassigned) [Example 59-3-1]: in experiment [1], the “Coupled exchange IC50 (5 min)” value is listed as 0.128 | nda μM. In addition, in experiment [2] (Homo sapiens, MIA PaCa-2, 2 h), the IC50 turned out to be 343 nM.
For `C=CC(=O)N1CCN(c2nc(=O)n(-c3c(C)ccnc3C(C)C)c3nc(-c4ccccc4F)c(F)cc23)[C@@H](C)C1` [Example 58-4, 6-fluoro-7-(2-fluorophenyl)-1-(4-methyl-2-(2-propanyl)-3-pyridinyl)-4-((2S)-2-methyl-4-(2-propenoyl)-1-piperazinyl)pyrido[2,3-d]pyrimidin-2(1H)-one], the “Coupled exchange IC50 (5 min)” value in experiment [1] was 0.395 | nda μM. Further, the IC50 in experiment [2] (Homo sapiens, MIA PaCa-2, 2 h) worked out at 183 nM.
Take `C=CC(=O)N1CCN(c2nc(=O)n(-c3ccccc3C(C)C)c3cc(-c4ccccc4F)c(Cl)nc23)[C@@H](C)C1` (single isomer, unassigned) [Example 110-2]: in experiment [1], the “Coupled exchange IC50 (5 min)” value is recorded as 0.071 | nda μM. Also, in experiment [2] (Homo sapiens, MIA PaCa-2, 2 h), the IC50 came to 247 nM.
`C=CC(=O)N1CCN(c2nc(=O)n(-c3c(Cl)cccc3C(C)C)c3nc(-c4c(O)cccc4F)c(F)cc23)[C@@H](C)C1` (single isomer, unassigned) [Example 57-15-2]: the “Coupled exchange IC50 (5 min)” value in experiment [1] is 0.841 | nda μM. Besides, the 50% inhibitory concentration (IC50) in experiment [2] was found to be 984 nM.
For `C=CC(=O)N1CCN(c2nc(=O)n(-c3ncccc3CC(C)C)c3nc(-c4c(O)cccc4F)c(Cl)cc23)[C@@H](C)C1` [Example 54-101, 6-chloro-7-(2-fluoro-6-hydroxyphenyl)-4-((2S)-2-methyl-4-(2-propenoyl)-1-piperazinyl)-1-(3-(2-methylpropyl)-2-pyridinyl) pyrido[2,3-d]pyrimidin-2(1H)-one], the “Coupled exchange IC50 (5 min)” value in experiment [1] is 0.162 | nda μM. The half-inhibitory concentration (IC50) in experiment [2] (Homo sapiens, MIA PaCa-2, 2 h) amounted to 157 nM.
With `C=CC(=O)N1CCN(c2nc(=O)n(-c3c(C)ccnc3C(C)C)c3nc(-c4cc(OC)ccc4F)c(Cl)cc23)[C@@H](C)C1` (atropisomer, axis not shown; (M)) [Example 73-6, (M)-6-chloro-7-(2-fluoro-5-methoxyphenyl)-1-(4-methyl-2-(2-propanyl)-3-pyridinyl)-4-((2S)-2-methyl-4-(2-propenoyl)-1-piperazinyl)pyrido[2,3-d]pyrimidin-2(1H)-one], in experiment [1], the “Coupled exchange IC50 (5 min)” value is on record as 0.059 | nda μM. Moreover, the IC50 in experiment [2] (Homo sapiens, MIA PaCa-2, 2 h) turned out to be 104 nM.
Taken in the same sequence, the figures for `C=CC(=O)N1CCN(c2nc(=O)n(-c3cncnc3C(C)(C)C)c3nc(-c4ccccc4F)c(Cl)cc23)[C@@H](C)C1` (single isomer, unassigned) [Example 54-110-2] were 0.194 | nda μM and 119 nM.
In the case of `C=CC(=O)N1CCN(c2nc(=O)n(-c3c(C)ccnc3CC)c3nc(-c4c(O)cccc4F)c(Cl)cc23)[C@@H](C)C1` (single isomer, unassigned) [Example 55-10-1], the “Coupled exchange IC50 (5 min)” value in experiment [1] is 0.065 | nda μM. In experiment [2], the IC50 came to 82 nM.
Consider `C=CC(=O)N1CCN(c2nc(=O)n(-c3cccnc3CC(C)C)c3nc(-c4ccccc4F)c(Cl)cc23)[C@@H](C)C1` [Example 101, 6-Chloro-7-(2-fluorophenyl)-4-((2S)-2-methyl-4-(2-propenoyl)-1-piperazinyl)-1-(2-(2-methylpropyl)-3-pyridinyl)pyrido[2,3-d]pyrimidin-2(1H)-one], for which the “Coupled exchange IC50 (5 min)” value in experiment [1] is recorded as 0.147 | nda μM. In experiment [2] (Homo sapiens, MIA PaCa-2, 2 h), the 50% inhibitory concentration (IC50) is 148 nM.
`C=CC(=O)N1CCN(c2cc(=O)n(-c3ccccc3C(C)C)c3nc(-c4ccccc4F)c(Cl)cc23)[C@@H](C)C1` [Example 126, 6-Chloro-7-(2-fluorophenyl)-4-((2S)-2-methyl-4-(2-propenoyl)-1-piperazinyl)-1-(2-(2-propanyl)phenyl)-1,8-naphthyridin-2(1H)-one]: the “Coupled exchange IC50 (5 min)” value in experiment [1] was 2.05 | nda μM. Also, the IC50 in experiment [2] (Homo sapiens, MIA PaCa-2, 2 h) was determined as 1720 nM.
On to `C=CC(=O)N1CCN(c2nc(=O)n(-c3scnc3CC)c3nc(-c4c(O)cccc4F)c(Cl)cc23)[C@@H](C)C1` [Example 60-22, 6-chloro-1-(4-ethyl-1,3-thiazol-5-yl)-7-(2-fluoro-6-hydroxyphenyl)-4-((2S)-2-methyl-4-(2-propenoyl)-1-piperazinyl)pyrido[2,3-d]pyrimidin-2(1H)-one], for which the “Coupled exchange IC50 (5 min)” value in experiment [1] is on record as 0.159 | nda μM. Besides, the IC50 in experiment [2] (Homo sapiens, MIA PaCa-2, 2 h) amounted to 433 nM.
Regarding `C=CC(=O)N1C[C@@H](C)N(c2nc(=O)n(-c3c(C)ccnc3C(C)C)c3nc(-c4c(N)cccc4F)c(Cl)cc23)[C@@H](C)C1` (atropisomer, axis not shown; (M)) [Example 73-12, (M)-7-(2-amino-6-fluorophenyl)-6-chloro-4-(cis-2,6-dimethyl-4-(2-propenoyl)-1-piperazinyl)-1-(4-methyl-2-(2-propanyl)-3-pyridinyl)pyrido[2,3-d]pyrimidin-2(1H)-one], the “Coupled exchange IC50 (5 min)” value in experiment [1] is listed as 0.01 | nda μM. In experiment [2] (Homo sapiens, MIA PaCa-2, 2 h), the IC50 is 10 nM.
As to `C=CC(=O)N1CCN(c2nc(=O)n(-c3c(C)ccnc3C(C)C)c3nc(-c4c(F)ccc(F)c4O)c(F)cc23)[C@@H](C)C1` (atropisomer, axis not shown; (M)) [Example 72-9, (M)-7-(3,6-difluoro-2-hydroxyphenyl)-6-fluoro-1-(4-methyl-2-(2-propanyl)-3-pyridinyl)-4-((2S)-2-methyl-4-(2-propenoyl)-1-piperazinyl)pyrido[2,3-d]pyrimidin-2(1H)-one], the “Coupled exchange IC50 (5 min)” value in experiment [1] was 0.191 | nda μM. Further, the half-maximal inhibitory concentration (IC50) in experiment [2] (Homo sapiens, MIA PaCa-2, 2 h) was found to be 554 nM.
On to `C=CC(=O)N1CCN(c2nc(=O)n(-c3ccccc3C(C)C)c3nc(-c4cc(O)ccc4Cl)c(Cl)cc23)[C@@H](C)C1` (single isomer, unassigned) [Example 54-90-2], for which the “Coupled exchange IC50 (5 min)” value in experiment [1] is recorded as 0.633 | nda μM. The half-maximal inhibitory concentration (IC50) in experiment [2] came to 568 nM.
Consider `C=CC(=O)N1CCN(c2nc(=O)n(-c3c(C)cc(N)nc3C(C)C)c3nc(-c4ccccc4F)c(Cl)cc23)[C@@H](C)C1` [Example 136, 1-(6-Amino-4-methyl-2-(2-propanyl)-3-pyridinyl)-6-chloro-7-(2-fluorophenyl)-4-((2S)-2-methyl-4-(2-propenoyl)-1-piperazinyl)pyrido[2,3-d]pyrimidin-2(1H)-one], for which the “Coupled exchange IC50 (5 min)” value in experiment [1] is listed as 0.135 | nda μM. In addition, the half-inhibitory concentration (IC50) in experiment [2] (Homo sapiens, MIA PaCa-2, 2 h) was 121 nM.
`C=CC(=O)N1CCN(c2nc(=O)n(-c3c(C)cccc3C3CC3)c3nc(-c4ccccc4F)c(Cl)cc23)[C@@H](C)C1` (single isomer, unassigned) [Example 56-5-2]: in experiment [1], the “Coupled exchange IC50 (5 min)” value is given as 0.668 | nda μM. In experiment [2], the half-inhibitory concentration (IC50) turned out to be 823 nM.
Regarding `C=CC(=O)N1CCN(c2nc(=O)n(-c3c(C)ccnc3C(C)C)c3nc(-c4c(C)ccc5[nH]ncc45)c(Cl)cc23)[C@@H](C)C1` (atropisomer, axis not shown; (M)) [Example 82-1, (M)-6-Chloro-7-(5-methyl-1H-indazol-4-yl)-1-(4-methyl-2-(2-propanyl)-3-pyridinyl)-4-((2S)-2-methyl-4-(2-propenoyl)-1-piperazinyl)pyrido[2,3-d]pyrimidin-2(1H)-one], the results for the IC50 in experiment [1] and in experiment [2] were 77 nM and 106 nM, respectively.
As to `C=CC(=O)N1CCN(c2nc(=O)n(-c3c(C(C)C)ncnc3C(C)C)c3nc(-c4ccc(F)cc4N)c(Cl)cc23)[C@@H](C)C1` [Example 87-5, 7-(2-amino-4-fluoropheny-1)-6-chloro-1-(4,6-di(2-propanyl)-5-pyrimidinyl)-4-((2S)-2-methyl-4-(2-propenoyl)-1-piperazinyl)pyrido[2,3-d]pyrimidin-2(1H)-one], the “Coupled exchange IC50 (5 min)” value in experiment [1] is listed as 0.251 | nda μM. Moreover, in experiment [2] (Homo sapiens, MIA PaCa-2, 2 h), the concentration for half-maximal inhibition (IC50) is 181 nM.
On to `C=CC(=O)N1CCN(c2nc(=O)n(-c3ccccc3C(C)C)c3nc(-c4ccccc4Cl)c(F)cc23)[C@@H](C)C1` (single isomer, unassigned) [Example 57-8-2], for which the “Coupled exchange IC50 (5 min)” value in experiment [1] was 0.514 | nda μM. Moreover, the half-inhibitory concentration (IC50) in experiment [2] (Homo sapiens, MIA PaCa-2, 2 h) was 166 nM.
`C=CC(=O)N1CCN(c2nc(=O)n(-c3c(C)cccc3C(C)(C)C)c3nc(-c4c(O)cccc4F)c(F)cc23)[C@@H](C)C1` [Example 57-17, 6-fluoro-7-(2-fluoro-6-hydroxyphenyl)-1-(2-methyl-6-(2-methyl-2-propanyl)phenyl)-4-((2S)-2-methyl-4-(2-propenoyl)-1-piperazinyl)pyrido[2,3-d]pyrimidin-2(1H)-one]: the “Coupled exchange IC50 (5 min)” value in experiment [1] was 0.574 | nda μM. Moreover, the IC50 in experiment [2] (Homo sapiens, MIA PaCa-2, 2 h) was 1440 nM.
Consider `C=CC(=O)N1CCN(c2nc(=O)n(-c3c(C#N)cccc3C(C)C)c3nc(-c4ccccc4F)c(Cl)cc23)[C@@H](C)C1` (single isomer, unassigned) [Example 60-20-2], for which, in experiment [1], the “Coupled exchange IC50 (5 min)” value was 0.024 | nda μM. Moreover, in experiment [2] (Homo sapiens, MIA PaCa-2, 2 h), the IC50 is 33 nM.
As for `C=CC(=O)N1CCN(c2nc(=O)n(-c3ccccc3C3CCC3)c3nc(-c4ccccc4F)c(Cl)cc23)[C@@H](C)C1` (single isomer, unassigned) [Example 54-12-2], in experiment [1], the “Coupled exchange IC50 (5 min)” value is reported as 0.949 | nda μM. Moreover, the 50% inhibitory concentration (IC50) in experiment [2] was 689 nM.
As for `C=CC(=O)N1CCN(c2nc(=O)n(-c3c(C(C)C)ncnc3C(C)C)c3nc(-c4ccccc4F)c(F)cc23)[C@@H](C)C1` [Example 57-5, 1-(4,6-di(2-propanyl)-5-pyrimidinyl)-6-fluoro-7-(2-fluorophenyl)-4-((2S)-2-methyl-4-(2-propenoyl)-1-piperazinyl)pyrido[2,3-d]pyrimidin-2(1H)-one], the “Coupled exchange IC50 (5 min)” value in experiment [1] was 0.221 | nda μM. The IC50 in experiment [2] (Homo sapiens, MIA PaCa-2, 2 h) was 107 nM.
